Results reported in PMC11470957, “Principles of paralog-specific targeted protein degradation engaging the C-degron E3 KLHDC2” (Nature Communications, 2024).
Values joined by “and” are separate entries in the source; they are usually repeats but may differ in a detail not shown here. Identical values can stand only once. Like-named read-outs stand apart in the source and are kept apart here.

What was measured:
[1] = tested on: SKBR3, AU565, RD, SKES1, A673 cells; experiment: Cell Titer-Glo Luminescent Cell Viability assay; conditions: read-out: IC50, cell viability; five cell lines (SKBR3, AU565, RD, SKES1, A673), after 24 hours
KLHDC2^SBD [2] = target: T1, KLHDC2^SBD (Homo sapiens, UniProt Q9Y2U9); experiment: Thermal shift assay (Sypro Orange) probing stabilization of KLHDC2^SBD; type: binding; parameters: KLHDC2^SBD (15-361) and its Avi-tagged counterpart were expressed in E. coli Rosetta2 cells; 6XHis-MBP (N, cleaved yes); made in house; host or cells: E. coli Rosetta2
T1 sequence (Q9Y2U9 15-361): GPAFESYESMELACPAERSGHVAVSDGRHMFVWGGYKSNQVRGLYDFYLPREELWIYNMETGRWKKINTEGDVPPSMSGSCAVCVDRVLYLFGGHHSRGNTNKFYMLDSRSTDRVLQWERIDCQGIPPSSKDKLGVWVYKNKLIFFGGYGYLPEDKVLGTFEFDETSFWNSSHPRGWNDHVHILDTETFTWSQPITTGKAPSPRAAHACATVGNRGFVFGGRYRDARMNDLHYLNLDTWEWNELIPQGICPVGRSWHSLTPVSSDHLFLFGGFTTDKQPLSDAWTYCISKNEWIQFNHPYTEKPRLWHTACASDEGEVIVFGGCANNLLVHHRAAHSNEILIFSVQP
Description: In an attempt to identify non-peptide ligands that target KLHDC2’s substrate binding domain (SBD), we developed a thermal shift assay probing for stabilization of KLHDC2^SBD upon ligand addition. […] We utilized the thermal shift assay to screen ~ 9,000 molecules from a diverse collection of lead-like molecules (Figs. 1b, S1a, Supplementary Table 1).
Experimental compounds (200 nl each) were dispensed into a 384-well PCR plate using the Labcyte ECHO 655 T. The assay solution, comprising 0.5 μM KLHDC2, 25 mM HEPES, 200 mM NaCl, and 5% Sypro Orange at pH 7.5, was added to achieve a final volume of 20 μl. Negative control wells contained only DMSO, while positive control wells contained a di-Gly substrate peptide derived from SELK. Fluorescence measurements of Sypro Orange in each sample were taken using a Quantstudio 5 or Quantstudio 6, with temperatures ranging from 23 to 75 °C at a rate of 0.05 °C/s. Data analysis involved calculating thermal stability using the Boltzmann and first derivative minima equations in Thermo Scientific Protein Thermal Shift software v1.4. The resulting data were uploaded to CDD Vault for further analysis.
The 8892-compound lead-like one library was screened for its ability to stabilize KLHDC2 using a sypro orange-based thermal stability single-point assay.
Supplementary Ta b l e 1. Small molecule screening data
Category Parameter Description
Assay Ty p e o f assay Thermal Stability Screen
Primary measurement RFU of Sypro Orange
Key reagents Sypro Orange
Assay protocol Experimental compounds (200nl each) were dispensed into […]
a 384-well PCR plate using the Labcyte ECHO 655T. The […]
assay solution, comprising 0.5µM KLHDC2, 25mM HEPES,
200mM NaCl, and 5% Sypro Orange at pH 7.5, was added […]
to achieve a final volume of 20μl. Negative control wells […]
contained only DMSO, while positive control wells […]
contained peptide sub2. Fluorescence measurements of
Sypro Orange in each sample were taken using a
Quantstudio 5 or Quantstudio 6, with temperatures ranging […]
from 23 to 75°C at a rate of 0.05°C/second. Data analysis […]
involved calculating thermal stability using the Boltzmann […]
and first derivative minima equations in Thermo Scientific
Protein Thermal Shift software v1.4. The resulting data […]
were uploaded to CDD Vault for further analysis.
Library Library size 10041
Library composition The library was curated from compounds cherry picked […]
from St. Jude’s collection, representative of 80% of the […]
entire collection based on scaffold diversity (2D Molecular […]
fingerprinting based clustering) and structural properties: […]
lipophilicity (cLogP<3), size (MW 200-300 Da), and no […]
structural alerts (PAINS).
Source The compound collection was curated from multiple […]
vendors and stored on-site.
Screen Format The assay was completed in 26 384 well plates
Concentration(s) tested Compounds were tested at 100µM, and then a 16-point […]
serial dilution was performed on select compounds.
Plate controls DMSO as negative control and peptide sub2 as positive […]
Reagent/ compound dispensing system Multidrop Combi and Labcyte ECHO 655T […]
Detection instrument and software Quant Studio 5 and Quant Studio 6 and Thermo Scientific […]
Protein Thermal Shift software v1.4
Correction factors No correction factors were applied.

KLHDC2^SBD [3] = target: T1, KLHDC2^SBD; experiment: TR-FRET assay, competition with di-Gly degron peptide binding to KLHDC2^SBD; parameters: KLHDC2^SBD (15-361) and its Avi-tagged counterpart were expressed in E. coli Rosetta2 cells; 6XHis-MBP (N, cleaved yes); made in house; host or cells: E. coli Rosetta2
Description: TR-FRET assays were carried out in black 384-well microtiter plates at a final volume of 20 μL per well. An assay cocktail was prepared as a mixture of 50 nM Biotin-KLHDC2 SBD, 20 nM AlexaFluor488-RIC8B peptide, 2.5 nM Tb-Streptavidin (ThermoFisher) in assay buffer (25 mM HEPES, 100 mM NaCl, 0.1% Triton X-100, 0.5 mM DTT, pH 7.5). The assay cocktail was incubated for thirty-minutes at room temperature and 20 μl distributed to assay plates. Molecules were distributed to the plates at the indicated concentration and the assay mixture was incubated for 1 h at room temperature prior to measuring the TR-FRET signal with a PHERAstar FS plate reader (BMG Labtech) equipped with modules for excitation at 337 nm and emissions at 490 and 520 nm. The integration start was set to 100 µs and the integration time to 200 µs. The number of flashes was fixed at 100. The ratio of 520/490 was used as TR-FRET signal in calculations. Assay endpoints were normalized to 100% (buffer only) and used for curve fitting in Prism.

KLHDC2^SBD [4] = target: T1, KLHDC2^SBD; experiment: Surface plasmon resonance binding to KLHDC2; parameters: KLHDC2^SBD (15-361) and its Avi-tagged counterpart were expressed in E. coli Rosetta2 cells; 6XHis-MBP (N, cleaved yes); made in house; host or cells: E. coli Rosetta2
Description: Surface plasmon resonance (SPR) was utilized to determine kinetic parameters and binding affinity of KLHDC2 substrates using a PioneerFE (Sartorius). Experiments were carried out in 20 mM Tris, 200 mM NaCl, 1 mM TCEP, 0.01% Brij35, and 1% DMSO at pH 7.4 as a running buffer with a 100 µL/min flow rate at 20 °C.
The 10xHis-KLHDC2 was immobilized onto a Ni-NTA-coated biosensor chip (HisCap). The chip surface was conditioned using 10 mM HCl, 50 mM NaOH, and 0.1% SDS (50 µL at 100 µL/min) twice, followed by a 100 mM Tris buffer wash (100 µL at 100 µL/min). The surface was then activated using an injection of 0.5 M EDTA (125 µL at 25 µL/min) followed by an injection of 5 mM NiCl2 (125 µL at 25 µL/min). […] Channel 2 was treated identically to channel 3 except for protein loading to be used as a reference channel. […] 100% of the loop was injected with a 300 s dissociation time. All samples were run in triplicate. Data was analyzed using Qdat software and fit to a simple 1-site model.
The SPR experiments were performed to determine the binding affinities (KD) of KLHDC2-SJ46411 and KLHDC2-SJ46418 complexes. All the experiments were performed using a Biacore 1S+ instrument. […] The running buffer consisted of 20 mM Tris pH 7.5, 200 mM NaCl, 1 mM TCEP, 0.01% Brij35, and 4% DMSO. […] In brief, before the immobilization, the sensor chip surface was conditioned by injecting a mixture of (3:1 v/v) 8 M guanidine hydrochloride and 1 M NaOH at a flow rate of 5 μL/min for 2 min for two times. Then, running buffer was injected at a 30 μl/min flow rate for 1 min 3 times. Next, the Biotin CAPture reagent was injected at a flow rate of 2 μl/min for 5 min. Then, biotinylated KLHDC2 was only injected onto the active channel (channel 2).
Sample preparation was carried out precisely the same as SJ46411. All experiments were performed using a multi-cycle analysis method with a 30 μl/min flow rate, 120 S association, and 240 s dissociation time. All data were reference subtracted and corrected for DMSO mismatch. The sensorgrams were analyzed using Biacore insight evaluation software, and KD was determined using the 1:1 steady-state affinity fitting. Finally, all the analyzed data was replotted using GraphPad Prizm 10 software.

[5] = tested on: BD2 domain from BRD2, BRD3, or BRD4 / neddylated CRL2^KLHDC2; experiment: Pulse-chase PROTAC-dependent ubiquitylation of BRD BD2 domains by neddylated CRL2^KLHDC2; conditions: neddylated CRL2^KLHDC2 not subject to autoinhibition; Fig 3e
[6] = Solubility as observed in the ITC sample cell; conditions: at 40 μM in the ITC sample cell
[7] = target: neddylated CRL2^KLHDC2 / BRD3^BD2 (Homo sapiens, UniProt Q15059+Q9Y2U9, Q9Y2U9:G405K/Q9Y2U9:S406K); experiment: biochemical
neddylated CRL2^KLHDC2 = neddylated CRL2^KLHDC2 (Homo sapiens, UniProt Q9Y2U9, G405K/S406K); experiment: biochemical
KLHDC2^SBD [8] = target: T1, KLHDC2^SBD; experiment: ITC, binary binding of small molecule to KLHDC2^SBD
KLHDC2^SBD / BRD3^BD2 = KLHDC2^SBD / BRD3^BD2 (Homo sapiens, UniProt Q15059+Q9Y2U9); experiment: ITC, ternary complex KLHDC2^SBD with PROTAC-BRD3^BD2
Sequence of KLHDC2^SBD / BRD3^BD2 (Q15059 306-416, one chain of several): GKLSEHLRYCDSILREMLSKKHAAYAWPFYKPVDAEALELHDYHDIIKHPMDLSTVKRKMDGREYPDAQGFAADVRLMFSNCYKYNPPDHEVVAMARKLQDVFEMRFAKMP

[9] = inhibition of KLHDC2^SBD binding to a di-Gly degron peptide, read-out: TR-FRET IC50
[10] = cell: ligand, syringe: KLHDC2^SBD
[11] = cell: PROTAC-BRD3^BD2, syringe: KLHDC2^SBD

`Cc1sc2c(c1C)C(c1ccc(Cl)cc1)=N[C@@H](CC(=O)OC(C)(C)C)c1nnc(C)n1-2` [JQ1, reference compound] showed an IC50 [1] of roughly 0.3 µM.

In the case of `O=C(O)CNC(=O)Cc1csc(-c2cccc(Cl)c2)n1` [SJ10267], the ΔTm at 50 µM (KLHDC2^SBD [2]; read-out: ΔTm at 50 µM) is reported as 2.3 ± 0.07 °C, the IC50 (KLHDC2^SBD [3]; [9]) is reported as 46.7 ± 13.5 µM and the Kd (KLHDC2^SBD [4]; read-out: SPR Kd) is reported as 19 ± 0.06 µM.

For `COc1ccc(-c2nc(CC(=O)NCC(=O)O)cs2)c(Cl)c1` [SJ10272], the ΔTm at 50 µM (KLHDC2^SBD [2]; read-out: ΔTm at 50 µM) was 3.3 ± 0.2 °C, the IC50 (KLHDC2^SBD [3]; [9]) was 30.2 ± 3.4 µM and the Kd (KLHDC2^SBD [4]; read-out: SPR Kd) was 14.52 ± 0.01 µM.

With `O=C(O)CNC(=O)Cc1csc(-c2ccc(O)cc2Cl)n1` [SJ10280] the ΔTm at 50 µM (KLHDC2^SBD [2]; read-out: ΔTm at 50 µM) was 2.5 ± 0.2 °C, the IC50 (KLHDC2^SBD [3]; [9]) was 40.6 ± 7.6 µM and the Kd (KLHDC2^SBD [4]; read-out: SPR Kd) was 25.47 ± 0.05 µM.

In the case of `COCn1cc(-c2nc(CC(=O)NCC(=O)O)cs2)ccc1=O` [SJ15396], the “ΔTm at 50 µM” value (KLHDC2^SBD [2]; 50 µM compound) is reported as 0.9 ± 0.2 °C, the IC50 (KLHDC2^SBD [3]) is reported as 55.3 ± 25.2 µM and the Kd (KLHDC2^SBD [4]; SPR Kd) is reported as greater than 2000 µM.

With `COCOc1ccc(-c2nc(CC(=O)NCC(=O)O)cs2)cc1F` [SJ45737] the ΔTm at 50 µM (KLHDC2^SBD [2]; read-out: ΔTm at 50 µM) was 2.8 ± 0.3 °C, the IC50 (KLHDC2^SBD [3]; [9]) was 72.8 ± 8.6 µM and the Kd (KLHDC2^SBD [4]; read-out: SPR Kd) was 26.6 ± 0.1 µM.

For `Cc1sc2c(c1C)C(c1ccc(Cl)cc1)=N[C@@H](CC(=O)N1CCN(CCOc3ccc4ccc(-c5nc(CC(=O)NCC(=O)O)cs5)cc4c3)CC1)c1nnc(C)n1-2` [SJ46423], the “polyubiquitylation of the BD2 domain from BRD2, BRD3, or BRD4” value [5] was “able to promote polyubiquitylation”, the solubility [6] was “solubility issues” and the IC50 [7] was 2.2 µM. For the same compound, the IC50 (neddylated CRL2^KLHDC2) was 15.3 µM, the Kd (KLHDC2^SBD [8]; ITC Kd, cell: ligand, syringe: KLHDC2^SBD) was 0.74 µM and 0.737 µM and the Kd (KLHDC2^SBD [8]; Kd, Rep1/Rep2, ITC source data Fig4a, syringe KLHDC2, cell PROTAC alone) was 0.69 µM and 0.789 µM. The “ITC -TΔS” value (KLHDC2^SBD [8]; [10]) was -5.26 +/- 0.22 kcal/mol-1, the “ITC stoichiometry of binding N” value (KLHDC2^SBD [8]; [10]) was 0.4 and ~ 0.5 and the “ITC ΔG” value (KLHDC2^SBD [8]; [10]) was -8.61 +/- 0.04 kcal/mol-1. The “ITC ΔH” value (KLHDC2^SBD [8]; [10]) was -3.35 +/- 0.11 kcal/mol-1, the “cooperativity α” value (KLHDC2^SBD / BRD3^BD2; BRD3^BD2, KLHDC2^SBD) was 2.9 and the “ITC -TΔS (ternary)” value (KLHDC2^SBD / BRD3^BD2; [11]) was -5.26 +/- 0.18 kcal/mol-1. For the same compound, the “ITC N (ternary)” value (KLHDC2^SBD / BRD3^BD2; [11]) was 0.4 and ~ 0.5 and the “ITC ΔG (ternary)” value (KLHDC2^SBD / BRD3^BD2; [11]) was -9.33 +/- 0.05 kcal/mol-1.
